Assay [1] concerns the target Sodium-dependent serotonin transporter (Mus musculus, UniProt Q60857). In words: Displacement of [3H]paroxetine from mouse SERT in whole brain membrane. In kind it is cell membranes. Background: Loss of bound radioactivity is the signal in a displacement assay; it reports binding, not function.
Assay [2] has as its target Sigma non-opioid intracellular receptor 1 (Cavia porcellus, UniProt Q60492). In words: Displacement of [3H]-(+)-pentazocine from sigma1 receptor in guinea pig brain membrane after 150 mins by scintillation counting analysis. In kind it is cell membranes.
Assay [3] in a line: Displacement of [3H]DTG from sigma2 receptor in guinea pig brain membrane after 120 mins by scintillation counting analysis. The class given is cell membranes, Cavia porcellus.
Assay [4] in a line: Selectivity ratio of Ki for mouse SERT to Ki for guinea pig brain sigma1 receptor.
Assay [5] addresses Sodium-dependent dopamine transporter (Mus musculus) (UniProt Q61327). Nature of the assay: […] from mouse DAT in striatal membranes at 10000 nM. In kind it is cell membranes. Conditions: Striatum, Membrane.
Assay [6] addresses Sodium-dependent dopamine transporter (Mus musculus, UniProt Q61327). In words: Displacement of [3H]RTI-121 from mouse DAT in striatal membranes. The class given is cell membranes, Striatum, Membrane.
Assay [7] in a line: Selectivity ratio of Ki for mouse DAT to Ki for guinea pig brain sigma1 receptor.
A further assay is filed under the species Cavia porcellus. Nature of the assay: Selectivity ratio of Ki for guinea pig brain sigma2 receptor to Ki for guinea pig brain sigma1 receptor.

Usually Ki stands for a measure of affinity in units of concentration, obtained from inhibition or displacement. Read a low Ki as a stronger hold on the target.

Chain of Sigma non-opioid intracellular receptor 1 (Q60492 whole entry): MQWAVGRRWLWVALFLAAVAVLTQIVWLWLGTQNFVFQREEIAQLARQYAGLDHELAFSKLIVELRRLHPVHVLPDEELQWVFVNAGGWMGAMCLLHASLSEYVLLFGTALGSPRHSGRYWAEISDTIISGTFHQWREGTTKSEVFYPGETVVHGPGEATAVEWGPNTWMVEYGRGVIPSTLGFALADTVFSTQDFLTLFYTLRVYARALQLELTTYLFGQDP
Chain of Sodium-dependent serotonin transporter (Q60857 whole entry): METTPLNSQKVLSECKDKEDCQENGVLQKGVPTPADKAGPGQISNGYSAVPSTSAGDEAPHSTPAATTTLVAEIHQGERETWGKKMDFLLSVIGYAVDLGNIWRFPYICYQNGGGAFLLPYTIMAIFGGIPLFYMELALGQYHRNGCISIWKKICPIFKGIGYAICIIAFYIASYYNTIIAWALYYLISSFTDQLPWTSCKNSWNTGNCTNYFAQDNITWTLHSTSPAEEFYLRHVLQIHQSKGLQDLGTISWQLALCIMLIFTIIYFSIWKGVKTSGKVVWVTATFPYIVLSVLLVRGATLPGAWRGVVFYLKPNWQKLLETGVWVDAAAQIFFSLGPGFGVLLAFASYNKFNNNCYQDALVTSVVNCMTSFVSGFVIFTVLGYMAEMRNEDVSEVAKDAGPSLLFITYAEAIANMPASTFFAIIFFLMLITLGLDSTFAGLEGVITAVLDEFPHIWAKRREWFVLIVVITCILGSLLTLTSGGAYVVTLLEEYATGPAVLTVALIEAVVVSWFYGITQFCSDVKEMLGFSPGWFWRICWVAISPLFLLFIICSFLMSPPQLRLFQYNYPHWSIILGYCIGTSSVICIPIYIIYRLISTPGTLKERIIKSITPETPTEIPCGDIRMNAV
Chain of Sodium-dependent dopamine transporter (Q61327 whole entry): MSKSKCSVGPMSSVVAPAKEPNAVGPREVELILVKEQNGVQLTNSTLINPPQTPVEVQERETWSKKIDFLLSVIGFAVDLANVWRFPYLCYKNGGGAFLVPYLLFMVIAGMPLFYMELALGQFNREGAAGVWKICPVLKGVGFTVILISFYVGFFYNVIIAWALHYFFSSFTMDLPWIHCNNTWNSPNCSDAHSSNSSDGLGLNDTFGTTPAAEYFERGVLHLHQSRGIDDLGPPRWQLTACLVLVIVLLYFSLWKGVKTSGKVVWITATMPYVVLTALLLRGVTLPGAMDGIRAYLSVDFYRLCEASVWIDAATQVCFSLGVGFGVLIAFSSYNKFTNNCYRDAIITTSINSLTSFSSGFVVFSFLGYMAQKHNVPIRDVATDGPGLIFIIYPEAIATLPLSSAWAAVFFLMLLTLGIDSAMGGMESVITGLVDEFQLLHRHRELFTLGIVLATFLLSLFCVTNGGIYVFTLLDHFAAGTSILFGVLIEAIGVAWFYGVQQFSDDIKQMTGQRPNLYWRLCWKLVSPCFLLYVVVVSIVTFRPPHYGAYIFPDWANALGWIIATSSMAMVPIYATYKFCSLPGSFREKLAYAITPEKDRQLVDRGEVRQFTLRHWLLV
Chain of Sodium-dependent dopamine transporter (Mus musculus) (Q61327 whole entry): as above

Take `Clc1ccc(CCN2CCN(CCCc3ccccc3)CC2)cc1Cl`: the Ki in assay [1] amounted to 2.86 µM; in assay [2] it was 0.0022 µM; in assay [3] it was 0.0388 µM.

With `COc1cc(CCN2CCN(CCCc3ccccc3)CC2)ccc1OC/C=C/I`, the Ratio Ki in assay [4] was determined as 10.3; in assay [7] it was 33; in the assay listed under Cavia porcellus, 1.1. In assay [5], the Inhibition % amounted to 69%. Further, the Ki in assay [1] was 0.174 µM; in assay [6] it was 0.56 µM; in assay [2] it was 0.0169 µM; in assay [3], 0.0182 µM.

In assay [5], `c1ccc(CCCN2CCN(CCc3ccc4c(c3)OCCCO4)CC2)cc1` registered an Inhibition % of 43%. Also, the Ki in assay [2] amounted to 0.0191 µM; in assay [3] it was 0.0521 µM. Besides, the Ratio Ki in the assay listed under Cavia porcellus came out at 2.7.

`COc1cc(CCN2CCN(CCCc3ccccc3)CC2)ccc1OCCCc1ccccc1` had an Inhibition % in assay [5] of 97%. Besides, the results for the inhibition constant Ki in assay [6], in assay [2] and in assay [3] were 0.087 µM, 0.0185 µM and 0.0233 µM, respectively. Moreover, the Ratio Ki in assay [7] came to 5; in the assay filed under Cavia porcellus it was 1.3.

For the compound `COc1cc(CCN2CCN(CCCc3ccccc3)CC2)ccc1OC/C=C\I`, the Inhibition % in assay [5] is 94%. Also, the Ki is 0.237 µM in assay [6], 0.0107 µM in assay [2] and 0.0167 µM in assay [3]. The Ratio Ki in assay [7] turned out to be 22; in the assay listed under Cavia porcellus it was 1.6.

Turning to `c1ccc(CCCN2CCN(CCc3ccc4c(c3)OCCO4)CC2)cc1`, the Inhibition % in assay [5] was 33%. The Ki in assay [2] is 0.0102 µM; in assay [3], 0.0352 µM. In the assay filed under Cavia porcellus, the Ratio Ki came out at 3.4.

Take `COc1ccc(CCN2CCN(CCCc3ccccc3)CC2)cc1OC` [[11C]SA4503]: the Ki was 0.76 µM in assay [1] and 0.0631 µM in assay [3].

`COc1cccc(CCN2CCN(CCCc3ccccc3)CC2)c1`: the Ratio Ki in assay [4] was determined as 703; in assay [7], 1010; in the assay filed under Cavia porcellus, 7.3. Also, the Ki in assay [1] was found to be 0.985 µM; in assay [6] it was 1.41 µM; in assay [2], 0.0014 µM; in assay [3], 0.0102 µM.

As to `COc1cc(CCN2CCN(CCCc3ccccc3)CC2)ccc1OCc1ccccc1`, the Ratio Ki in assay [4] is 6.2; in assay [7], 6; in the assay filed under Cavia porcellus, 0.8. In assay [5], this compound yielded an Inhibition % of 93%. Besides, the inhibition constant (Ki) in assay [1] amounted to 0.128 µM; in assay [6] it was 0.121 µM; in assay [2] it was 0.0208 µM; in assay [3] it was 0.0164 µM.

Consider `c1ccc(CCCN2CCN(CCc3ccc4c(c3)OCO4)CC2)cc1`, for which the Ratio Ki in assay [4] worked out at 184; in assay [7] it was 721; in the assay filed under Cavia porcellus, 5.8. In assay [5], this compound registered an Inhibition % of 42%. Further, the Ki in assay [1] was found to be 0.468 µM; in assay [6], 1.84 µM; in assay [2] it was 0.00255 µM; in assay [3], 0.0148 µM.

In turn, `COc1cc(CCN2CCN(CCCc3ccccc3)CC2)ccc1OCCc1ccccc1` yielded an Inhibition % in assay [5] of 89%. Besides, the Ki was found to be 0.0133 µM in assay [2] and 0.0166 µM in assay [3]. In addition, in the assay filed under Cavia porcellus, the Ratio Ki came to 1.2.

`COc1cc(CCN2CCN(CCCc3ccccc3)CC2)ccc1OCCF` gave an Inhibition % in assay [5] of 23%. Besides, the Ki in assay [2] came to 0.00803 µM; in assay [3] it was 0.113 µM. In addition, the Ratio Ki in the assay filed under Cavia porcellus is 14.1.

In assay [5], `COc1cc(CCN2CCN(CCCc3ccccc3)CC2)ccc1OCCBr` had an Inhibition % of 38%. Further, the values for the Ki in assay [2] and in assay [3] were 0.0254 µM and 0.0271 µM, respectively. The Ratio Ki in the assay listed under Cavia porcellus was found to be 1.1.

Compound `COc1cc(CCN2CCN(CCCc3ccccc3)CC2)ccc1OCF` yielded an Inhibition % in assay [5] of 19%. Further, the values for the Ki in assay [2] and in assay [3] were 0.0064 µM and 0.25 µM, respectively. Also, the Ratio Ki in the assay filed under Cavia porcellus came out at 39.

In the case of `C=CCOc1ccc(CCN2CCN(CCCc3ccccc3)CC2)cc1OC`, the values for the Ratio Ki (in assay [4]; in assay [7]; in the assay filed under Cavia porcellus) were 9.8, 69 and 1.4, respectively. Further, in assay [5], the Inhibition % came to 44%. Moreover, the Ki in assay [1] is 0.295 µM; in assay [6] it was 2.08 µM; in assay [2], 0.0301 µM; in assay [3], 0.0421 µM.

Regarding `COc1ccc(CCN2CCN(CCCc3ccccc3)CC2)cc1`, the Ratio Ki in assay [4] turned out to be 1330; in assay [7], 1130; in the assay filed under Cavia porcellus it was 22. Besides, the Ki in assay [1] came out at 1.73 µM; in assay [6], 1.47 µM; in assay [2], 0.0013 µM; in assay [3], 0.0286 µM.

On to `COc1ccccc1CCN1CCN(CCCc2ccccc2)CC1`, for which, in assay [3], the Ki is 0.0075 µM.

Consider `CCCOc1ccc(CCN2CCN(CCCc3ccccc3)CC2)cc1OC`, for which the Ratio Ki in assay [4] was 4.8; in assay [7] it was 71; in the assay listed under Cavia porcellus it was 1.3. In assay [5], this compound gave an Inhibition % of 43%. Moreover, the Ki in assay [1] amounted to 0.124 µM; in assay [6], 1.82 µM; in assay [2], 0.0256 µM; in assay [3], 0.0334 µM.

Turning to `COc1cc(CCN2CCN(CCCc3ccccc3)CC2)ccc1O`, the values for the Ki in assay [2] and in assay [3] were 0.00175 µM and 0.00672 µM, respectively. In the assay listed under Cavia porcellus, the Ratio Ki was 3.8.

These data come from ChEMBL document CHEMBL3352167 (Bioorg Med Chem, 2015).
